This assay concerns the target T1, cPLA2 (Homo sapiens, UniProt P47712).
T1 sequence (P47712 1-749): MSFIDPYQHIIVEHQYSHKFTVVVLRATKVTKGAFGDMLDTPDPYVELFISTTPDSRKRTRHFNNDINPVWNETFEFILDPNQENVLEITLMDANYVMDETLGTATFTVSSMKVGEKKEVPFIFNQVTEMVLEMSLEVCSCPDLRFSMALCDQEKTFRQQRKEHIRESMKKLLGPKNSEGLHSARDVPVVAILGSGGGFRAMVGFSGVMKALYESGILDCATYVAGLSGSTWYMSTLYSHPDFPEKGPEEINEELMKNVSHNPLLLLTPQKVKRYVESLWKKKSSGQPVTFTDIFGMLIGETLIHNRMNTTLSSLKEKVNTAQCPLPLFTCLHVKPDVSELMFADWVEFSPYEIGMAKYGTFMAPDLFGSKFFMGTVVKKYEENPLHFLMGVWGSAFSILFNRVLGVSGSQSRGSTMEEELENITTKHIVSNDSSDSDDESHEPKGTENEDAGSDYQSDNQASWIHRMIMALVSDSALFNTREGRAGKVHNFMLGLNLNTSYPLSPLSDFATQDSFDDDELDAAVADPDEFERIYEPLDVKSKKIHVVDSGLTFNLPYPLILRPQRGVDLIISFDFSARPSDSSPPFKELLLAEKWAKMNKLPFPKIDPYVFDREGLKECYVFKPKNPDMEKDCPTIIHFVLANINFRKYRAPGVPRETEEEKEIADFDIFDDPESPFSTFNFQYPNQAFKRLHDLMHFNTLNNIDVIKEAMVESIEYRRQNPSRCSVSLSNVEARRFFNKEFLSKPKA
The assay is described as follows: Coumarin Assay (cPLA2 inhibition). The class given is biochemical. How it is done: Table I reports data for the compounds described in the examples above in cPLA2 inhibition assays (described below). In the data columns of Tables I and II, assay results are reported as a percent inhibition at the concentration specified.
7-hydroxycoumarinyl 6-heptenoate was used as a monomeric substrate for cPLA2 as reported previously (Huang, Z. et al., 1994, Nalytical Biochemistry 222, 110-115). Inhibitors were mixed with 200 μL assay buffer (80 mM Heped, pH 7.5, 1 mM EDTA) containing 60 μM 7-hydroxycoumarinyl 6-heptenoate. The reaction was initiated by adding 4 μg cPLA2 in 50 μL assay buffer. Hydrolysis of the 7-hydroxycounarimyl 6-heptenoate ester was monitored in a fluorometer by exciting at 360 nm and monitoring emission at 460 nm. Enzyme activity is proportional to the increase in emission at 460 nm per minute. In the presence of a cPLA2 inhibitor, the rate of increase is less. The percent inhibition for corresponding concentrations of compounds herein in this Coumarin assay are provided below in Table I.

[1] abbreviates: CONCENTRATION 50 micromolar, read-out: PERCENT INHIBITION @.

Molecules are shown by their SMILES.

As to `COc1cc(C(=O)NS(=O)(=O)c2ccccc2C)ccc1Cc1cn(C(c2ccccc2)c2ccccc2)c2ccc([N+](=O)[O-])cc12` [Example 36, N-{4-[(1-benzhydryl-5-nitro-1H-indol-3-yl)methyl]-3-methoxybenzoyl}-2-methylbenzenesulfonamide], the inhibition at 0.22 µM (CONCENTRATION 0.22 micromolar, read-out: PERCENT INHIBITION @) was 50%. In addition, the inhibition at 0.25 µM (CONCENTRATION 0.25 micromolar, read-out: PERCENT INHIBITION @) amounted to 60%. Where the note is “CONCENTRATION 0.32 micromolar, read-out: PERCENT INHIBITION @”, the inhibition at 0.32 µM came out at 50%. For the same compound, the inhibition at 0.45 µM (CONCENTRATION 0.45 micromolar, read-out: PERCENT INHIBITION @) was determined as 50%.

`Cc1c(CC[S+]([O-])c2ccc(C(=O)O)cc2)c2cc(Cl)ccc2n1C(c1ccccc1)c1ccccc1` (stereo not drawn) [Example 148, 4-{[2-(1-benzhydryl-5-chloro-2-methyl-1H-indol-3-yl)ethyl]sulfinyl}benzoic acid]: 2.8 µM produced 50% inhibition (Conc 2.8 uM). `O=C(O)Cc1cn(CC2CC2)c2ccc(-c3cccs3)cc12` [Example 78, 2-[1-(cyclopropylmethyl)-5-(2-thienyl)-1H-indol-3-yl]acetic acid]: the inhibition at 80 µM (CONCENTRATION 80 micromolar, read-out: PERCENT INHIBITION @) is 50%. The inhibition at 110 µM (CONCENTRATION 110 micromolar, read-out: PERCENT INHIBITION @) stood at 50%. For `O=C(O)c1ccc(OCCc2c(COCc3c(F)cccc3F)n(C(c3ccccc3)c3ccccc3)c3ccc(Cl)cc23)cc1` [Example 156, 4-[2-(1-benzhydryl-5-chloro-2-{[(2,6-difluorobenzyl)oxy]methyl}-1H-indol-3-yl)ethoxy]benzoic acid], the inhibition at 1 µM (Conc 1 uM, read-out: % Inhibition) worked out at 50%. Turning to `O=C(O)c1ccc(OCCc2c(COCc3ccc(F)cc3)n(C(c3ccccc3)c3ccccc3)c3ccc(Cl)cc23)cc1` [Example 161, 4-[2-(1-benzhydryl-5-chloro-2-{[(4-fluorobenzyl)oxy]methyl}-1H-indol-3-yl)ethoxy]benzoic acid], the inhibition at 1.8 µM (Conc 1.8 uM, read-out: % Inhibition) came to 50%. As for `O=C(O)c1ccc(OCCc2c(COCc3ccc(F)cc3F)n(C(c3ccccc3)c3ccccc3)c3ccc(Cl)cc23)cc1` [Example 162, 4-[2-(1-benzhydryl-5-chloro-2{[(2,4-difluorobenzyl)oxy]methyl}-1H-indol-3-yl)ethoxy]benzoic acid], the inhibition at 1.5 µM (Conc 1.5 uM, read-out: % Inhibition) was found to be 50%. In the case of `O=C(O)C(=O)c1cn(Cc2ccc(C(F)(F)F)cc2C(F)(F)F)c2ccc(OCc3ccccc3)cc12` [Example 70, 2-{5-(benzyloxy)-1-[2,4-bis(trifluoromethyl)benzyl]-1H-indol3-yl}-2-oxoacetic acid], where the note is “CONCENTRATION 50 micromolar”, the “PERCENT INHIBITION @” value is on record as 40%. Under setting [1], the inhibition at 50 µM was 39%.

With `O=C(Cc1cn(Cc2ccc(C(F)(F)F)cc2C(F)(F)F)c2ccc(OCc3ccccc3)cc12)Nc1cccc(C(=O)O)c1` [Example 106, 3-[(2-{5-(benzyloxy)-1-[2,4-bis(trifluoromethyl)benzyl]-1H-indol-3-yl}acetyl)amino]benzoic acid], the inhibition at 7 µM (CONCENTRATION 7 micromolar, read-out: PERCENT INHIBITION @) turned out to be 50%. Under “CONCENTRATION 12 micromolar, read-out: PERCENT INHIBITION @”, the inhibition at 12 µM was 50%.

`O=C(O)CCC(=O)Nc1ccc(Cc2cn(C(c3ccccc3)c3ccccc3)c3cc(Cl)ccc23)cc1` [Example 123, 4-{4-[(1-benzhydryl-6-chloro-1H-indol-3-yl)methyl]anilino}-4-oxobutanooic acid]: the “PERCENT INHIBITION @” value (CONCENTRATION 1.2 micromolar) is 50%. With `COc1cc(C(=O)NS(=O)(=O)c2sc(C)nc2C)ccc1Cc1cn(C(c2ccccc2)c2ccccc2)c2ccc(NC(=O)OC3CCCC3)cc12` [Example 32, cyclopentyl N-{1-benzhydryl-3-[4-({[(2,4-dimethyl-1,3-thiazol-5-yl)sulfonyl]amino}carbonyl)-2-methoxybenzyl]-1H-indol-5-yl}carbamate], the inhibition at 4 µM (CONCENTRATION 4 micromolar, read-out: PERCENT INHIBITION @) was 50%. Further, under “CONCENTRATION 4.4 micromolar, read-out: PERCENT INHIBITION @”, the inhibition at 4.4 µM turned out to be 50%.

For `COc1cc(C(=O)O)ccc1Cc1cn(C(c2ccccc2)c2ccc(N)cc2)c2cc(Cl)ccc12` (stereo not drawn) [Example 132, ′4-({1-[(4-aminophenyl)(phenyl)methyl]-6-chloro-1H-indol-3-yl}methyl)-3-methoxybenzoic acid], the “PERCENT INHIBITION @” value (CONCENTRATION 0.4 micromolar) was determined as 50%. `Cc1c(CCSc2ccc(CCC(=O)O)cc2)c2cc(Cl)ccc2n1C(c1ccccc1)c1ccccc1` [Example 170, 3-(4 {[2-(1-benzhydryl-5-chloro-2-methyl-1H-indol-3-yl)ethyl]sulfanyl}phenyl)propanoic acid]: the inhibition at 0.5 µM (Conc 0.5 uM, read-out: % Inhibition) came to 50%. As to `O=C(O)C1CC1Cc1cn(C(c2ccccc2)c2ccccc2)c2cc(Cl)c(Cl)cc12` (stereo not drawn) [Example 128, 2-[(1-benzhydryl-5,6-dichloro-1H-indol-3-yl)methyl]cyclopropanecarboxylic acid], where the note is “CONCENTRATION 0.9 micromolar, read-out: PERCENT INHIBITION @”, the inhibition at 0.9 µM came to 50%. For the compound `O=C(O)CCc1ccc(S(=O)(=O)CCc2c(CO)n(C(c3ccccc3)c3ccccc3)c3ccc(Cl)cc23)cc1` [Example 168, 3-[4-({2-[1-benzhydryl-5-chloro-2-(hydroxymethyl)-1H-indol-3-yl]ethyl}sulfonyl)phenyl]propanoic acid], the inhibition at 2.4 µM (Conc 2.4 uM, read-out: % Inhibition) stood at 50%.

As for `O=C(O)C(=O)c1cn(Cc2ccc(Cc3ccccc3)cc2)c2ccc(OCc3ccccc3)cc12` [Example 69, 2-[1-(4-benzylbenzyl)-5-(benzyloxy)-1H-indol-3-yl]-2-oxoacetic acid], the inhibition at 12.5 µM (CONCENTRATION 12.5 micromolar, read-out: PERCENT INHIBITION @) was 50%. Consider `O=C(O)c1ccc(S(=O)(=O)CCc2c(CO)n(C(c3ccccc3)c3ccccc3)c3ccc(Cl)cc23)cc1` [Example 157, 4-({2-[1-benzhydryl-5-chloro-2-(hydroxymethyl)-1H-indol-3-yl]ethyl}sulfonyl)benzoic acid], for which, under “Conc 3.8 uM, read-out: % Inhibition”, the inhibition at 3.8 µM is 50%.

In the case of `O=C(O)c1ccc(OCCc2c(COCc3ccncc3)n(C(c3ccccc3)c3ccccc3)c3ccc(Cl)cc23)cc1` [Example 159, 4-(2-{1-benzhydryl-5-chloro-2-[(4-pyridinylmethoxy)methyl]-1H-indol-3-yl}ethoxy)benzoic acid], for the setting “Conc 4.2 uM, read-out: % Inhibition”, the inhibition at 4.2 µM is 50%.

On to `O=C(O)c1ccc(OCCc2c(COC/C=C/c3ccccc3)n(C(c3ccccc3)c3ccccc3)c3ccc(Cl)cc23)cc1` [Example 164, 4-{2-[1-benzhydryl-5-chloro-2-({[(E)-3-phenyl-2-propenyl]oxy}methyl)-1H -indol-3-yl)ethoxy]benzoic acid], for which the inhibition at 3.5 µM (Conc 3.5 uM, read-out: % Inhibition) was 50%. On to `Cc1c(C(=O)O)c2cc(OCc3ccccc3)ccc2n1Cc1ccc2ccccc2c1` [Example 109, 5-(benzyloxy)-2-methyl-1-(2-naphthylmethyl)-1H-indole-3-carboxylic acid], for which the “PERCENT INHIBITION @” value (CONCENTRATION 50 micromolar) is 25%. Moreover, the inhibition at 50 µM under setting [1] was 28%. With `O=C(Nc1cccc(C(=O)O)c1)C(=O)c1c(CSc2ccc3ccccc3c2)n(Cc2ccc(Cl)cc2)c2ccc(OCc3ccccc3)cc12` [Example 112, 3-[(2-{5-(benzyloxy)-1-(4-chlorobenzyl)-2-[(2-naphthylsulfanyl)methyl]-1H-indol-3-yl}-2-oxoacetyl)amino]benzoic acid], the inhibition at 2.5 µM (CONCENTRATION 2.5 micromolar, read-out: PERCENT INHIBITION @) came to 53%. For the compound `COc1cc(C(=O)NS(=O)(=O)c2ccccc2C)ccc1Cc1cn(Cc2ccncc2)c2ccc(NC(=O)OC3CCCC3)cc12` [Example 22, Cyclopentyl N-[3-[2-methoxy-4-({[(2-methylphenyl)sulfonyl]amino}carbonyl)benzyl]-1-(4-pyridinylmethyl)-1H-indol-5-yl]carbamate], the inhibition at 38 µM (CONCENTRATION 38 micromolar, read-out: PERCENT INHIBITION @) was found to be 50%. For the setting “CONCENTRATION 40 micromolar, read-out: PERCENT INHIBITION @”, the inhibition at 40 µM turned out to be 50%.

Usually inhibition stands for how much of the control response was suppressed.

The record behind these values is patent publication US6500853B1, “Inhibitors of phospholipase enzymes” (Genetics Institute, LLC, priority 1998, dated 2002).
